Results taken from patent US4010261A, “Method to prevent reproduction with [Des-Gly]^10 -GN-RH nonadeptide amide analogs in position” (Abbott Laboratories, priority 1974, dated 1977).

Columns and labels:
[1] = tested on: rats treated with Compound N; experiment: Exogenous estradiol given to Compound N-treated pregnant rats; type: in vivo, rat; settings: estradiol 0.1 μg. s.c. in sesame oil on days 4 and 5 of gestation, rats treated with Compound N days 2-6
Procedure: More specifically, if estradiol is subcutaneously given to rats treated with Compound N (days 2 - 6 of gestation) on days 4 and 5 of gestation at a dose of as little as 0.1 μg. each (dissolved in sesame oil), implantation already takes place in 3 of 8 animals, producing 100% viable embryos.

pregnant rats = experiment: Implantation in pregnant rats with various compounds under Compound N (Examples 7-10); type: in vivo, rat
Procedure: a) number of animals with implants/number of animals treated
b) mean implantation sites (based on those with implantation sites)
c) viable fetuses/total number of fetuses (successful pregnancy)
In this experiment, the activity of various compounds encompassed under Compound N are desmonstrated. Groups of 8 - 10 pregnant rats were injected subcutaneously b.i.d. with 0.5 ml. of the medium shown in Example 1 containing the compound and dose identified below. The results are expressed as explained in Example 2.

For `C[C@]12CC[C@@H]3c4ccc(O)cc4CC[C@H]3[C@@H]1CC[C@@H]2O` [estradiol], the “animals in which implantation takes place” value [1] was 3 of 8 and the viable embryos [1] was 100%.

For `CCNC(=O)[C@@H]1CCCN1C(=O)[C@H](CCCNC(=N)N)NC(=O)[C@H](CC(C)C)NC(=O)[C@@H](C)NC(=O)[C@H](Cc1ccc(O)cc1)NC(=O)[C@H](CO)NC(=O)[C@H](Cc1c[nH]c2ccccc12)NC(=O)[C@H](Cc1c[nH]cn1)NC(=O)[C@@H]1CCC(=O)N1` [Example 8, L-pGlu-L-His-L-Trp-L-Ser-L-Tyr-X-L-Leu-L-Arg-L-Pro-NH-R], the “a: number of animals with implants/number of animals treated” value (pregnant rats; Dose 10 μg. s.c. b.i.d.) was 0/10, the “b: mean implantation sites (based on those with implantation sites)” value (pregnant rats; Dose 10 μg. s.c. b.i.d.) was 0 and the “c: viable fetuses/total number of fetuses (successful pregnancy)” value (pregnant rats; Dose 10 μg. s.c. b.i.d.) was 0%.

For `CNC(=O)[C@@H]1CCCN1C(=O)[C@H](CCCNC(=N)N)NC(=O)[C@H](CC(C)C)NC(=O)[C@@H](CC(C)C)NC(=O)[C@H](Cc1ccc(O)cc1)NC(=O)[C@H](CO)NC(=O)[C@H](Cc1c[nH]c2ccccc12)NC(=O)[C@H](Cc1c[nH]cn1)NC(=O)[C@@H]1CCC(=O)N1` [Example 10, L-pGlu-L-His-L-Trp-L-Ser-L-Tyr-X-L-Leu-L-Arg-L-Pro-NH-R], the “a: number of animals with implants/number of animals treated” value (pregnant rats; Dose 25 μg. s.c. b.i.d.) was 0/10, the “b: mean implantation sites (based on those with implantation sites)” value (pregnant rats; Dose 25 μg. s.c. b.i.d.) was 0 and the “c: viable fetuses/total number of fetuses (successful pregnancy)” value (pregnant rats; Dose 25 μg. s.c. b.i.d.) was 0%.
